Test results reported in patent publication US4255435A, “Triazole compounds” (priority 1980, dated 1981).
Converted amounts (≈) assume the structure as drawn.

Key:
Format in all cases: in vivo
[1] = system: eggs of the cabbage root fly (Erioischia brassicae); assay: Egg hatch of cabbage root fly eggs in test solution; details: Table 4; eggs stored six days, egg hatch counted, two replicates; 8640 min
Description: This example illustrates the activity of compounds of the invention against the eggs of the cabbage root fly (Erioischia brassicae).
The eggs were then stored for six days and the egg hatch then counted.

aphid Megoura viciae = assay: Aphids on sprayed broad bean plants; details: Table 6; sprayed infested broad bean plants, 24 hours
Method: Broad bean plants 3 to 5 cm. high were infested with aphids and then sprayed with an aqueous dispersion containing varying concentrations of test compound. Each plant was kept under a lamp glass for 24 hours and then examined. In this way an LD50 value for the compounds was calculated.

[2] = system: larvae of the diamond back moth (Plutella maculipennis); assay: Mortality of larvae of the diamond back moth on treated cabbage leaf; details: for ACTIVITY LD50: Table 1, cabbage leaf dipped in test solution, mortality after 24 + 24 hours, two replicates; for ACTIVITY LD50 / Plutella maculipennis LD50 values: 2880 min; for Plutella maculipennis LD50 values: Table 2, comparative 1,2,4-triazoles, method of Example 9; for LC50: Plutella, 48 h, read-out: Plutella maculipennis LD50 values
Method: (§1) Ten larvae were placed in a tube together with a square inch of cabbage leaf which had been dipped in the test solution and allowed to dry. After twenty-four hours untreated cabbage was added for food and after a further twenty-four hours an assessment was made of the mortality of the larvae.
Two replicates were carried out for each test compound and test solutions of varying concentrations employed so that an LD50 value could be calculated.

[3] = system: larvae of the codling moth (Cydia pomonella); assay: Codling moth larvae on sprayed apple (number of strikes); details: Table 5, after five days, two replicates, 7200 min
Description: This example illustrates the activity of compounds of the invention against the larvae of the codling moth (Cydia pomonella).
An apple sprayed with test solution was allowed to dry and a perspex ring of 1 inch diameter was attached to the apple. Ten larvae were then placed on the apple surface and contained within the ring by means of a muslin covering. After five days an assessment of mortality was made by counting the number of strikes (i.e. the number of entry holes) made by the larvae.

[4] = system: nematode Meloidogyne incognita incognita; assay: Root knots of tomato plants in nematode-infested treated soil; details: 100 parts per million per unit volume of soil, 30° C., ten days; untreated controls average more than 20 knots
Method: This example illustrates the activity of compounds of the invention against the nematode Meloidogyne incognita incognita.
Small tomato plants were transferred to containers with infested soil. Sufficient test compound to give a concentration of 100 parts per million per unit volume of soil was poured onto the soil and the containers suspended in warm water at 30° C.
After ten days the plants were knocked out of the containers and the roots washed clean, the number of knots being noted. The latter was an indication of activity and a low score indicated high activity.

[5] = system: larvae of the cabbage white butterfly (Pieris brassicae); assay: Mortality of larvae of the cabbage white butterfly on treated cabbage leaf; details: Table 3; cabbage leaf dipped in test solution, mortality after 24 + 24 hours, two replicates; 2880 min
Method: This example illustrates the activity of compounds of the invention against larvae of the cabbage white butterfly (Pieris brassicae).
as §1

Compound: 1(2)-N,N-dimethylcarbamoyl-3-isopropyl-5-(2-bromoallylthio)-1,2,4-triazole [methyl methyl isopropyl 2-bromoallyl]
- ACTIVITY LD50 [1]: 0.9 p.p.m.

Compound: 1(2)-N,N-dimethylcarbamoyl-3-isopropyl-5-(2-chloroallylthio)-1,2,4-triazole [methyl methyl isopropyl 2-chloroallyl]
- ACTIVITY LD50 [1]: 0.27 p.p.m.
- ACTIVITY LD50 (aphid Megoura viciae): 1.2 p.p.m.

Compound: 1(2)-N,N-dimethylcarbamoyl-3-isopropyl-5-ethylthio-1,2,4-triazole [methyl methyl isopropyl ethyl]
- ACTIVITY LD50 [2]: 140 p.p.m.
- ACTIVITY LD50 [3]: < 10 p.p.m.

Compound: 1(2)-N,N-dimethylcarbamoyl-3-isopropyl-5-propylthio-1,2,4-triazole [methyl methyl isopropyl propyl]
- ACTIVITY LD50 [2]: 220 p.p.m.
- ACTIVITY LD50 [1]: 0.57 p.p.m.
- ACTIVITY LD50 [3]: < 10 p.p.m.
- ACTIVITY LD50 (aphid Megoura viciae): 1.6 p.p.m.

Compound: 1(2)-N,N-dimethylcarbamoyl-3-isopropyl-5-vinylthio-1,2,4-triazole [methyl methyl isopropyl vinyl]
- ACTIVITY LD50 [2]: < 25 p.p.m.

Compound: 1(2)-N,N-dimethylcarbamoyl-3-s-butyl-5-(2-chloroallylthio)-1,2,4-triazole [methyl methyl s-butyl 2-chloroallyl]
- ACTIVITY LD50 [1]: 0.8 p.p.m.

Compound: 1(2)-N,N-dimethylcarbamoyl-3-s-butyl-5-ethylthio-1,2,4-triazole [methyl methyl s-butyl ethyl]
- ACTIVITY LD50 [2]: 220 p.p.m.
- ACTIVITY LD50 [3]: 18 p.p.m.
- ACTIVITY LD50 (aphid Megoura viciae): 0.66 p.p.m.

Compound: 1(2)-N,N-dimethylcarbamoyl-3-s-butyl-5-methylthio-1,2,4-triazole [methyl methyl s-butyl methyl]
- ACTIVITY LD50 [2]: 140 p.p.m.
- ACTIVITY LD50 [3]: 14 p.p.m.
- ACTIVITY LD50 (aphid Megoura viciae): 0.32 p.p.m.

Compound: 1(2)-N,N-dimethylcarbamoyl-3-s-butyl-5-prop-2-ynylthio-1,2,4-triazole [methyl methyl s-butyl prop-2-ynyl]
- ACTIVITY LD50 [2]: 270 p.p.m.

Compound: 1(2)-N,N-dimethylcarbamoyl-3-s-butyl-5-propylthio-1,2,4-triazole [methyl methyl s-butyl propyl]
- ACTIVITY LD50 [2]: 320 p.p.m.
- ACTIVITY LD50 [3]: 10 p.p.m.
- ACTIVITY LD50 (aphid Megoura viciae): 0.86 p.p.m.

Compound: 1(2)-N,N-dimethylcarbamoyl-3-s-butyl-5-vinylthio-1,2,4-triazole [methyl methyl s-butyl vinyl]
- ACTIVITY LD50 [2]: 160 p.p.m.

Compound: 1(2)-N,N-dimethylcarbamoyl-3-t-butyl-5-ethylthio-1,2,4-triazole [methyl methyl t-butyl ethyl]
- ACTIVITY LD50 [3]: 24 p.p.m.
- ACTIVITY LD50 (aphid Megoura viciae): 0.71 p.p.m.
- number of knots on roots [4]: ≤ 2 knots

Compound: 1(2)-N,N-dimethylcarbamoyl-3-t-butyl-5-vinylthio-1,2,4-triazole [methyl methyl t-butyl vinyl]
- ACTIVITY LD50 [2]: 160 p.p.m.
- ACTIVITY LD50 (aphid Megoura viciae): 0.61 p.p.m.
- number of knots on roots [4]: ≤ 2 knots

Compound: 1(2)-N-ethyl-N-methylcarbamoyl-3-t-butyl-5-prop-2-ynylthio-1,2,4-triazole [ethyl methyl t-butyl prop-2-ynyl]
- ACTIVITY LD50 [2]: 68 p.p.m.

Compound: 1(2)-N-methyl-N-n-butylcarbamoyl-3-methylthio-5-methyl-1,2,4-triazole
- Plutella maculipennis LD50 values [2]: > 5000 p.p.m.

Compound: 1(2)-diallylcarbamoyl-3-ethylthio-5-methyl-1,2,4-triazole
- Plutella maculipennis LD50 values [2]: > 5000 p.p.m.

Compound: 1(2)-diethylcarbamoyl-3-methylthio-5-methyl-1,2,4-triazole
- Plutella maculipennis LD50 values [2]: > 5000 p.p.m.

Compound: 1(2)-dimethlcarbamoyl-3-ethylthio-5-methyl-1,2,4-triazole
- Plutella maculipennis LD50 values [2]: 1600 p.p.m.

Compound: 1(2)-pyrrolidinocarbonyl-3-methylthio-5-methyl-1,2,4-triazole
- Plutella maculipennis LD50 values [2]: > 5000 p.p.m.

Compound: 2(2)-dimethylthiocarbamoyl-3-methylthio-5-methyl-1,2,4-triazole
- Plutella maculipennis LD50 values [2]: > 5000 p.p.m.

Compound: CC1CCN(C(=O)n2cncn2)CC1 [1-(4-methylpiperidinocarbonyl)-1,2,4-triazole]
- LC50 [2]: > 5000 µg/mL

Compound: CCSc1ncn(C(=O)N(CC#N)CC#N)n1 [1-di(cyanomethyl)carbamoyl-3-ethylthio-1,2,4-triazole]
- LC50 [2]: > 5000 µg/mL

Compound: C=CCN(CC=C)C(=O)n1cnc(SCCN(CC)CC)n1 [1-diallylcarbamoyl-3-(2-diethylaminoethylthio)-1,2,4-triazole]
- LC50 [2]: > 5000 µg/mL

Compound: C=CCN(CC=C)C(=O)n1cnc(SCC(=O)OC)n1 [1-diallylcarbamoyl-3-methoxycarbonylmethylthio-1,2,4-triazole]
- LC50 [2]: > 5000 µg/mL

Compound: CN(C)C(=O)n1cncn1 [1-dimethylcarbamoyl-1,2,4-triazole]
- LC50 [2]: 1250 µg/mL (≈ 8.92 mM)

Compound: Cc1nc(C)n(C(=O)N(C)C)n1 [1-dimethylcarbamoyl-3,5-dimethyl-1,2,4-triazole]
- LC50 [2]: > 5000 µg/mL

Compound: CN(C)C(=O)n1cnc(SSc2ncn(C(=O)N(C)C)n2)n1 [1-dimethylcarbamoyl-3-(1-dimethylcarbamoyl-1,2,4-triazole-3-yldithio)-1,2,4,-triazole]
- LC50 [2]: > 5000 µg/mL

Compound: CN(C)C(=O)n1cnc(Sc2ccc([N+](=O)[O-])cc2[N+](=O)[O-])n1 [1-dimethylcarbamoyl-3-(2,4-dinitrophenylthio)-1,2,4-triazole]
- LC50 [2]: > 5000 µg/mL

Compound: Cc1nc(SCc2ccccc2)nn1C(=O)N(C)C [1-dimethylcarbamoyl-3-benzylthio-5-methyl-1,2,4-triazole]
- LC50 [2]: > 5000 µg/mL

Compound: CN(C)C(=O)n1cnc(Br)n1 [1-dimethylcarbamoyl-3-bromo-1,2,4-triazole]
- LC50 [2]: > 5000 µg/mL

Compound: CN(C)C(=O)n1cnc(Cl)n1 [1-dimethylcarbamoyl-3-chloro-1,2,4-triazole]
- LC50 [2]: > 5000 µg/mL

Compound: CN(C)C(=O)n1cnc(SC2CCCCC2)n1 [1-dimethylcarbamoyl-3-cyclohexylthio-1,2,4-triazole]
- LC50 [2]: > 5000 µg/mL

Compound: CCCCCCCCCCCCSc1ncn(C(=O)N(C)C)n1 [1-dimethylcarbamoyl-3-dodecylthio-1,2,4-triazole]
- LC50 [2]: > 5000 µg/mL

Compound: CCCCCCCCCCCCSc1nc(C)n(C(=O)N(C)C)n1 [1-dimethylcarbamoyl-3-dodecylthio-5-methyl-1,2,4-triazole]
- LC50 [2]: > 5000 µg/mL

Compound: CCOC(=O)CSc1nc(C)n(C(=O)N(C)C)n1 [1-dimethylcarbamoyl-3-ethoxycarbonylmethylthio-5-methyl-1,2,4-triazole]
- LC50 [2]: > 5000 µg/mL

Compound: CCc1nc(SC)n(C(=O)N(C)C)n1 [1-dimethylcarbamoyl-3-ethyl-5-methylthio-1,2,4-triazole]
- LC50 [2]: 1900 µg/mL (≈ 8.87 mM)

Compound: Cc1ncn(C(=O)N(C)C)n1 [1-dimethylcarbamoyl-3-methyl-1,2,4-triazole]
- LC50 [2]: > 5000 µg/mL

Compound: CSc1nc(C)nn1C(=O)N(C)C [1-dimethylcarbamoyl-3-methyl-5-methylthio-1,2,4-triazole]
- LC50 [2]: 2200 µg/mL (≈ 11 mM)

Compound: CSc1ncn(C(=O)N(C)C)n1 [1-dimethylcarbamoyl-3-methylthio-1,2,4-triazole]
- LC50 [2]: 2300 µg/mL (≈ 12.3 mM)

Compound: CCCCCCSc1ncn(C(=O)N(C)C)n1 [1-dimethylcarbamoyl-3-n-hexylthio-1,2,4-triazole]
- LC50 [2]: > 5000 µg/mL

Compound: Cc1nc(Sc2ccc([N+](=O)[O-])cc2)nn1C(=O)N(C)C [1-dimethylcarbamoyl-3-p-nitrophenylthio-5-methyl-1,2,4-triazole]
- LC50 [2]: > 5000 µg/mL

Compound: CSc1nc(-c2ccccc2)nn1C(=O)N(C)C [1-dimethylcarbamoyl-3-phenyl-5-methylthio-1,2,4-triazole]
- LC50 [2]: > 5000 µg/mL

Compound: CCCCCCCCCCCc1nc(SC)n(C(=O)N(C)C)n1 [1-dimethylcarbamoyl-3-undecyl-5-methylthio-1,2,4-triazole]
- LC50 [2]: > 5000 µg/mL

Compound: C#CCSc1nc(C(C)C)nn1C(=O)N(C)C [methyl methyl isopropyl prop-2-ynyl, 1(2)-N,N-dimethylcarbamoyl-3-isopropyl-5-prop-2-ynylthio-1,2,4-triazole]
- ACTIVITY LD50 [2]: 87 p.p.m.
- ACTIVITY LD50 [5]: 31 p.p.m.
- ACTIVITY LD50 (aphid Megoura viciae): 1.5 p.p.m.

Compound: C=C(Br)CSc1nc(C(C)(C)C)nn1C(=O)N(C)C [methyl methyl t-butyl 2-bromoallyl, 1(2)-N,N-dimethylcarbamoyl-3-t-butyl-5-(2-bromoallylthio)-1,2,4-triazole]
- ACTIVITY LD50 [1]: 0.57 p.p.m.
- ACTIVITY LD50 (aphid Megoura viciae): 0.66 p.p.m.

Compound: C=C(Cl)CSc1nc(C(C)(C)C)nn1C(=O)N(C)C [methyl methyl t-butyl 2-chloroallyl, 1(2)-N,N-dimethylcarbamoyl-3-t-butyl-5-(2-chloroallylthio)-1,2,4-triazole]
- ACTIVITY LD50 [1]: 0.22 p.p.m.
- ACTIVITY LD50 (aphid Megoura viciae): 1.6 p.p.m.
